# Laboratory results taken from the supplement of paper PMC10307832.
# What was measured:
# Test in all cases: relative viability (nuclei count vs DMSO), 5 days (fraction); higher = more cells survive
# Cediranib + Tozasertib = compound: COc1cc2c(Oc3ccc4[nH]c(C)cc4c3F)ncnc2cc1OCCCN1CCCC1 [Cediranib] + Cc1cc(Nc2cc(N3CCN(C)CC3)nc(Sc3ccc(NC(=O)C4CC4)cc3)n2)n[nH]1 [Tozasertib] (partner 0.1 µM)
# Outline: (§1)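 Relative viability divides the nuclei count in treated wells by that in vehicle wells. Lung cancer cell lines were seeded in 1536-well plates, dosed by pin tool the next day, and fixed and stained after 5 days in one step with final 0.05% Triton X-100, 1% formaldehyde and 1 ug/ml Hoechst. Dosing was a single drug or a fixed anchor-drug dose plus five library-drug doses (not always all listed) in √10 steps, and values are medians of duplicate plates imaged at 4×.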
# Cediranib + OSI-027 = compound: COc1cc2c(Oc3ccc4[nH]c(C)cc4c3F)ncnc2cc1OCCCN1CCCC1 [Cediranib] + COc1cccc2cc(-c3nc([C@H]4CC[C@H](C(=O)O)CC4)n4ncnc(N)c34)[nH]c12 [OSI-027] (partner 0.5 µM)
# Outline: as §1
# Halofuginone + Alpelisib = compound: O=C(C[C@H]1NCCC[C@@H]1O)Cn1cnc2cc(Br)c(Cl)cc2c1=O (racemic) [Halofuginone] + Cc1nc(NC(=O)N2CCC[C@H]2C(N)=O)sc1-c1ccnc(C(C)(C)C(F)(F)F)c1 [Alpelisib] (partner 2 µM)
# Outline: as §1
# Halofuginone + Dasatinib = compound: O=C(C[C@H]1NCCC[C@@H]1O)Cn1cnc2cc(Br)c(Cl)cc2c1=O (racemic) [Halofuginone] + Cc1nc(Nc2ncc(C(=O)Nc3c(C)cccc3Cl)s2)cc(N2CCN(CCO)CC2)n1 [Dasatinib] (partner 0.075 µM)
# Outline: as §1
Cell Line,relative viability (Cediranib + Tozasertib; first compound 0.04 µM),relative viability (Cediranib + Tozasertib; first compound 0.1265 µM),relative viability (Cediranib + Tozasertib; first compound 0.4 µM),relative viability (Cediranib + Tozasertib; first compound 1.265 µM),relative viability (Cediranib + Tozasertib; first compound 4 µM),relative viability (Cediranib + OSI-027; first compound 0.04 µM),relative viability (Cediranib + OSI-027; first compound 0.1265 µM),relative viability (Cediranib + OSI-027; first compound 0.4 µM),relative viability (Cediranib + OSI-027; first compound 1.265 µM),relative viability (Cediranib + OSI-027; first compound 4 µM),relative viability (Halofuginone + Alpelisib; first compound 0.001 µM),relative viability (Halofuginone + Alpelisib; first compound 0.003162 µM),relative viability (Halofuginone + Alpelisib; first compound 0.01 µM),relative viability (Halofuginone + Alpelisib; first compound 0.03162 µM),relative viability (Halofuginone + Alpelisib; first compound 0.1 µM),relative viability (Halofuginone + Dasatinib; first compound 0.001 µM),relative viability (Halofuginone + Dasatinib; first compound 0.003162 µM),relative viability (Halofuginone + Dasatinib; first compound 0.01 µM),relative viability (Halofuginone + Dasatinib; first compound 0.03162 µM),relative viability (Halofuginone + Dasatinib; first compound 0.1 µM)
SW 1573,0.193,0.179,0.136,0.153,0.18,0.682,0.644,0.604,0.427,0.662,0.735,0.748,0.717,0.645,0.618,0.576,0.579,0.481,0.241,0.0881
NCI-H661,0.255,0.365,0.338,0.349,0.372,0.734,0.686,0.71,0.686,0.669,0.687,0.65,0.53,0.817,0.68,0.954,0.884,0.856,0.79,0.378
LU99A,0.292,0.285,0.285,0.286,0.292,0.281,0.314,0.305,0.286,0.288,0.553,0.488,0.538,0.475,0.326,0.743,0.584,0.453,0.53,0.392
LCLC-97TM1,0.217,0.224,0.191,0.227,0.229,0.605,0.332,0.518,0.508,0.566,0.298,0.23,0.305,0.209,0.199,0.78,0.902,0.775,0.826,0.775
LC-2-ad,0.496,0.373,0.456,0.507,0.371,0.874,0.731,0.821,0.762,0.835,0.952,0.847,0.861,0.772,0.334,0.711,0.517,0.511,0.565,0.209
NCI-H1395,0.739,0.773,0.666,0.74,0.791,0.628,0.751,0.62,0.615,0.608,1.06,1.03,1.01,0.866,0.608,0.425,0.469,0.426,0.364,0.366
NCI-H2228,0.26,0.351,0.237,0.207,0.203,0.552,0.767,0.496,0.335,0.68,0.797,0.877,0.762,0.399,0.151,0.622,0.488,0.48,0.236,0.0746
NCI-H1944,0.255,0.264,0.244,0.24,0.266,0.382,0.513,0.422,0.39,0.429,0.829,0.85,0.827,0.839,0.68,0.229,0.236,0.209,0.207,0.155
HOP-62,0.366,0.457,0.388,0.379,0.352,0.78,0.813,0.771,0.677,0.791,0.992,1.03,0.902,1.04,0.423,0.641,0.75,0.737,0.545,0.369
NCI-H2347,0.532,0.385,0.596,0.539,0.485,0.376,0.448,0.371,0.407,0.425,1.07,1.07,1.09,1.02,0.876,0.299,0.308,0.334,0.281,0.194
NCI-H2087,0.279,0.257,0.213,0.226,0.228,0.558,0.742,0.526,0.425,0.763,1.12,0.98,1.14,0.935,0.612,0.834,1.16,0.9,0.808,0.522
EPLC-272H,0.267,,0.31,,0.297,0.288,,0.287,,0.232,1.04,0.893,0.866,1.02,0.798,0.366,0.427,0.43,0.37,0.274
LXF-289,0.231,0.219,0.212,0.212,0.2,0.667,0.641,0.689,0.77,0.79,1.04,1.08,1.01,0.994,0.852,0.318,0.266,0.267,0.222,0.198
COR-L23,0.182,0.192,0.19,0.264,0.183,0.913,0.767,0.738,0.675,0.872,0.808,0.823,0.754,0.635,0.118,0.617,0.481,0.535,0.311,0.083
RERF-LC-KJ,0.598,0.535,0.469,0.544,0.464,0.572,0.511,0.547,0.492,0.523,0.849,1.09,0.735,0.908,0.831,0.875,0.91,0.764,0.862,0.633
NCI-H1755,0.54,0.481,0.532,0.595,0.547,0.601,0.565,0.689,0.694,0.81,0.866,0.937,0.891,0.923,0.588,0.514,0.435,0.465,0.422,0.291
